Experimental data published in US10118935B2, “Melampomagnolide B dimers” (priority 2014, dated 2018).

Experiments:
CCRF-CEM = experiment: NCI 60 cell line five dose, Leukemia
K-562 = experiment: NCI 60 cell line five dose, Leukemia
SR = experiment: NCI 60 cell line five dose, Leukemia
M14 = experiment: NCI 60 cell line five dose, Melanoma
SK-MEL-28 = experiment: NCI 60 cell line five dose, Melanoma
UACC-62 = experiment: NCI 60 cell line five dose, Melanoma
SF-268 = experiment: NCI 60 cell line five dose, CNS Cancer
SF-295 = experiment: NCI 60 cell line five dose, CNS Cancer
SF-539 = experiment: NCI 60 cell line five dose, CNS Cancer
COLO 205 = experiment: NCI 60 cell line five dose, Colon Cancer
HCC-2998 = experiment: NCI 60 cell line five dose, Colon Cancer
HCT-15 = experiment: NCI 60 cell line five dose, Colon Cancer
KM12 = experiment: NCI 60 cell line five dose, Colon Cancer
786-0 = experiment: NCI 60 cell line five dose, Renal Cancer
A498 = experiment: NCI 60 cell line five dose, Renal Cancer
CAKI-1 = experiment: NCI 60 cell line five dose, Renal Cancer
RXF 393 = experiment: NCI 60 cell line five dose, Renal Cancer
SN12C = experiment: NCI 60 cell line five dose, Renal Cancer
T-47D = experiment: NCI 60 cell line five dose, Breast Cancer
OVCAR-4 = experiment: NCI 60 cell line five dose, Ovarian Cancer
PC-3 = experiment: NCI 60 cell line five dose, Prostate Cancer
NCI-H226 = experiment: NCI 60 cell line five dose, Non-Small Cell Lung Cancer
NCI-H460 = experiment: as above

## C=C1C(=O)O[C@H]2[C@H]1CC/C(COC(=O)NCCCCCCCCNC(=O)OC/C1=C/CC[C@@]3(C)O[C@H]3[C@H]3OC(=O)C(=C)[C@@H]3CC1)=C\CC[C@@]1(C)O[C@@H]21 [JVM 3-62, bis(((1aR,7aS, 10aS, 10bS, E)-1a-Methyl-8-methylene-9-oxo-1a,2,3,6,7,7a,8,9,10a,10b-decahydrooxireno[2′,3′:9,10]cyclodeca[1,2-b]furan-5-yl)methyl)octane-1,8-diyldicarbamate]
CCRF-CEM; Log10 Concentration −4.0
  Percent Growth: −44%
CCRF-CEM; Log10 Concentration −5.0
  Percent Growth: −45%
CCRF-CEM; Log10 Concentration −6.0
  Percent Growth: −8%
CCRF-CEM; Log10 Concentration −7.0
  Percent Growth: 89%
CCRF-CEM; Log10 Concentration −8.0
  Percent Growth: 99%
CCRF-CEM; molar
  GI50: 255 nM
CCRF-CEM; read-out: LC50, molar
  CC50: > 100 µM
K-562; Log10 Concentration −4.0
  Percent Growth: −44%
K-562; Log10 Concentration −5.0
  Percent Growth: −14%
K-562; Log10 Concentration −6.0
  Percent Growth: 2%
K-562; Log10 Concentration −7.0
  Percent Growth: 107%
K-562; Log10 Concentration −8.0
  Percent Growth: 103%
K-562; molar
  GI50: 349 nM
  TGI: 1.37E−6
K-562; read-out: LC50, molar
  CC50: > 100 µM
SR; Log10 Concentration −4.0
  Percent Growth: −31%
SR; Log10 Concentration −5.0
  Percent Growth: −26%
SR; Log10 Concentration −6.0
  Percent Growth: 6%
SR; Log10 Concentration −7.0
  Percent Growth: 95%
SR; Log10 Concentration −8.0
  Percent Growth: 98%
SR; molar
  GI50: 317 nM
SR; read-out: LC50, molar
  CC50: > 100 µM
M14; Log10 Concentration −4.0
  Percent Growth: −76%
M14; Log10 Concentration −5.0
  Percent Growth: −71%
M14; Log10 Concentration −6.0
  Percent Growth: −10%
M14; Log10 Concentration −7.0
  Percent Growth: 95%
M14; Log10 Concentration −8.0
  Percent Growth: 95%
M14; molar
  GI50: 272 nM
  TGI: 8.00E−7
M14; read-out: LC50, molar
  CC50: 4.53 µM
SK-MEL-28; Log10 Concentration −4.0
  Percent Growth: −71%
SK-MEL-28; Log10 Concentration −5.0
  Percent Growth: −77%
SK-MEL-28; Log10 Concentration −6.0
  Percent Growth: −37%
SK-MEL-28; Log10 Concentration −7.0
  Percent Growth: 90%
SK-MEL-28; Log10 Concentration −8.0
  Percent Growth: 92%
SK-MEL-28; molar
  GI50: 205 nM
  TGI: 5.11E−7
SK-MEL-28; read-out: LC50, molar
  CC50: 2120 nM
UACC-62; Log10 Concentration −4.0
  Percent Growth: −77%
UACC-62; Log10 Concentration −5.0
  Percent Growth: −84%
UACC-62; Log10 Concentration −6.0
  Percent Growth: −39%
UACC-62; Log10 Concentration −7.0
  Percent Growth: 87%
UACC-62; Log10 Concentration −8.0
  Percent Growth: 96%
UACC-62; molar
  GI50: 197 nM
  TGI: 4.88E−7
UACC-62; read-out: LC50, molar
  CC50: 1720 nM
SF-268; Log10 Concentration −4.0
  Percent Growth: −59%
SF-268; Log10 Concentration −5.0
  Percent Growth: −66%
SF-268; Log10 Concentration −6.0
  Percent Growth: 50%
SF-268; Log10 Concentration −7.0
  Percent Growth: 104%
SF-268; Log10 Concentration −8.0
  Percent Growth: 101%
SF-268; molar
  GI50: 999 nM
  TGI: 2.69E−6
SF-268; read-out: LC50, molar
  CC50: 7.24 µM
SF-295; Log10 Concentration −4.0
  Percent Growth: −87%
SF-295; Log10 Concentration −5.0
  Percent Growth: −40%
SF-295; Log10 Concentration −6.0
  Percent Growth: 87%
SF-295; Log10 Concentration −7.0
  Percent Growth: 92%
SF-295; Log10 Concentration −8.0
  Percent Growth: 85%
SF-295; molar
  GI50: 1950 nM
  TGI: 4.82E−6
SF-295; read-out: LC50, molar
  CC50: 16.2 µM
SF-539; Log10 Concentration −4.0
  Percent Growth: −83%
SF-539; Log10 Concentration −5.0
  Percent Growth: −91%
SF-539; Log10 Concentration −6.0
  Percent Growth: −27%
SF-539; Log10 Concentration −7.0
  Percent Growth: 95%
SF-539; Log10 Concentration −8.0
  Percent Growth: 89%
SF-539; molar
  GI50: 235 nM
  TGI: 5.99E−7
SF-539; read-out: LC50, molar
  CC50: 2260 nM
COLO 205; Log10 Concentration −4.0
  Percent Growth: −65%
COLO 205; Log10 Concentration −5.0
  Percent Growth: −73%
COLO 205; Log10 Concentration −6.0
  Percent Growth: −15%
COLO 205; Log10 Concentration −7.0
  Percent Growth: 109%
COLO 205; Log10 Concentration −8.0
  Percent Growth: 104%
COLO 205; molar
  GI50: 300 nM
  TGI: 7.56E−7
COLO 205; read-out: LC50, molar
  CC50: 3.99 µM
HCC-2998; Log10 Concentration −4.0
  Percent Growth: −92%
HCC-2998; Log10 Concentration −5.0
  Percent Growth: −93%
HCC-2998; Log10 Concentration −6.0
  Percent Growth: 63%
HCC-2998; Log10 Concentration −7.0
  Percent Growth: 98%
HCC-2998; Log10 Concentration −8.0
  Percent Growth: 100%
HCC-2998; molar
  GI50: 1200 nM
  TGI: 2.52E−6
HCC-2998; read-out: LC50, molar
  CC50: 5.28 µM
HCT-15; Log10 Concentration −4.0
  Percent Growth: 83%
HCT-15; Log10 Concentration −5.0
  Percent Growth: −90%
HCT-15; Log10 Concentration −6.0
  Percent Growth: 16%
HCT-15; Log10 Concentration −7.0
  Percent Growth: 90%
HCT-15; Log10 Concentration −8.0
  Percent Growth: 91%
HCT-15; molar
  GI50: 346 nM
  TGI: 1.41E−6
HCT-15; read-out: LC50, molar
  CC50: 4.16 µM
KM12; Log10 Concentration −4.0
  Percent Growth: −83%
KM12; Log10 Concentration −5.0
  Percent Growth: −66%
KM12; Log10 Concentration −6.0
  Percent Growth: 65%
KM12; Log10 Concentration −7.0
  Percent Growth: 105%
KM12; Log10 Concentration −8.0
  Percent Growth: 102%
KM12; molar
  GI50: 1290 nM
KM12; read-out: LC50, molar
  CC50: 7.49 µM
786-0; Log10 Concentration −4.0
  Percent Growth: −81%
786-0; Log10 Concentration −5.0
  Percent Growth: −81%
786-0; Log10 Concentration −6.0
  Percent Growth: −32%
786-0; Log10 Concentration −7.0
  Percent Growth: 95%
786-0; Log10 Concentration −8.0
  Percent Growth: 95%
786-0; molar
  GI50: 244 nM
786-0; read-out: LC50, molar
  CC50: 2930 nM
A498; Log10 Concentration −4.0
  Percent Growth: −83%
A498; Log10 Concentration −5.0
  Percent Growth: −91%
A498; Log10 Concentration −6.0
  Percent Growth: 91%
A498; Log10 Concentration −7.0
  Percent Growth: 104%
A498; Log10 Concentration −8.0
  Percent Growth: 94%
A498; molar
  GI50: 1690 nM
  TGI: 3.14E−6
A498; read-out: LC50, molar
  CC50: 5.83 µM
CAKI-1; Log10 Concentration −4.0
  Percent Growth: −99%
CAKI-1; Log10 Concentration −5.0
  Percent Growth: −93%
CAKI-1; Log10 Concentration −6.0
  Percent Growth: 41%
CAKI-1; Log10 Concentration −7.0
  Percent Growth: 92%
CAKI-1; Log10 Concentration −8.0
  Percent Growth: 94%
CAKI-1; molar
  GI50: 557 nM
CAKI-1; read-out: LC50, molar
  CC50: 4.79 µM
RXF 393; Log10 Concentration −4.0
  Percent Growth: −76%
RXF 393; Log10 Concentration −5.0
  Percent Growth: −92%
RXF 393; Log10 Concentration −6.0
  Percent Growth: −82%
RXF 393; Log10 Concentration −7.0
  Percent Growth: 85%
RXF 393; Log10 Concentration −8.0
  Percent Growth: 96%
RXF 393; molar
  GI50: 162 nM
  TGI: 3.22E−7
RXF 393; read-out: LC50, molar
  CC50: 640 nM
SN12C; Log10 Concentration −4.0
  Percent Growth: −59%
SN12C; Log10 Concentration −5.0
  Percent Growth: −65%
SN12C; Log10 Concentration −6.0
  Percent Growth: −7%
SN12C; Log10 Concentration −7.0
  Percent Growth: 91%
SN12C; Log10 Concentration −8.0
  Percent Growth: 100%
SN12C; molar
  GI50: 264 nM
SN12C; read-out: LC50, molar
  CC50: 5.49 µM
T-47D; Log10 Concentration −4.0
  Percent Growth: −49%
T-47D; Log10 Concentration −5.0
  Percent Growth: −46%
T-47D; Log10 Concentration −6.0
  Percent Growth: −4%
T-47D; Log10 Concentration −7.0
  Percent Growth: 100%
T-47D; Log10 Concentration −8.0
  Percent Growth: 92%
T-47D; molar
  GI50: 323 nM
  TGI: 9.15E−7
T-47D; read-out: LC50, molar
  CC50: > 100 µM
OVCAR-4; Log10 Concentration −4.0
  Percent Growth: −89%
OVCAR-4; Log10 Concentration −5.0
  Percent Growth: −92%
OVCAR-4; Log10 Concentration −6.0
  Percent Growth: 34%
OVCAR-4; Log10 Concentration −7.0
  Percent Growth: 91%
OVCAR-4; Log10 Concentration −8.0
  Percent Growth: 90%
OVCAR-4; molar
  GI50: 521 nM
OVCAR-4; read-out: LC50, molar
  CC50: 4.63 µM
PC-3; Log10 Concentration −4.0
  Percent Growth: −91%
PC-3; Log10 Concentration −5.0
  Percent Growth: −78%
PC-3; Log10 Concentration −6.0
  Percent Growth: 21%
PC-3; Log10 Concentration −7.0
  Percent Growth: 91%
PC-3; Log10 Concentration −8.0
  Percent Growth: 91%
PC-3; molar
  GI50: 385 nM
  TGI: 1.63E−6
PC-3; read-out: LC50, molar
  CC50: 5.2 µM
NCI-H226; Log10 Concentration −4.0
  Percent Growth: −57%
NCI-H226; Log10 Concentration −5.0
  Percent Growth: −46%
NCI-H226; Log10 Concentration −6.0
  Percent Growth: 83%
NCI-H226; Log10 Concentration −7.0
  Percent Growth: 89%
NCI-H226; Log10 Concentration −8.0
  Percent Growth: 93%
NCI-H226; molar
  GI50: 1810 nM
  TGI: 4.39E−6
NCI-H460; Log10 Concentration −4.0
  Percent Growth: −64%
NCI-H460; Log10 Concentration −5.0
  Percent Growth: −56%
NCI-H460; Log10 Concentration −6.0
  Percent Growth: 84%
NCI-H460; Log10 Concentration −7.0
  Percent Growth: 102%
NCI-H460; Log10 Concentration −8.0
  Percent Growth: 104%
NCI-H460; molar
  GI50: 1750 nM
  TGI: 3.98E−6
NCI-H460; read-out: LC50, molar
  CC50: 9.02 µM
